Assay results: PMC3445454, “Broad and Cross-Clade CD4^+ T-Cell Responses Elicited by a DNA Vaccine Encoding Highly Conserved and Promiscuous HIV-1 M-Group Consensus Peptides” (PLoS ONE, 2012)
Ends that are not written are not given here.

Target: T1, HLA-DP DPA1*01:03/DPB1*02:01 (Homo sapiens, UniProt P04440+P20036, A65V/A84D/A85E/K98E)
T1 sequence (P20036 29-260): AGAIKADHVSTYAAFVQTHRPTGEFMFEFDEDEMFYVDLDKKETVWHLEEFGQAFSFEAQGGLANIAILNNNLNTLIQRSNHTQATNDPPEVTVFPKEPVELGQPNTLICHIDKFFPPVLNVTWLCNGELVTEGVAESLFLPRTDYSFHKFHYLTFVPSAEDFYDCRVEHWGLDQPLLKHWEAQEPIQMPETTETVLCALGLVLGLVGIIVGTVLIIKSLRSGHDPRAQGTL
T1 sequence (P04440 30-258 A65V/A84D/A85E/K98E): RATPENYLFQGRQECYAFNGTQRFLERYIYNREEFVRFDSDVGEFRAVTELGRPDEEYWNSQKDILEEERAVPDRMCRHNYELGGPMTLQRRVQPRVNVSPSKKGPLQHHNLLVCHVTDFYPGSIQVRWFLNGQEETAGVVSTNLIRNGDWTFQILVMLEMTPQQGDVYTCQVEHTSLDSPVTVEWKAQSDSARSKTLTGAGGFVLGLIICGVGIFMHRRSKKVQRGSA
Assay: biochemical
Format: binding
Conditions: not given

Compound | IC50
CC[C@H](C)[C@H](NC(=O)[C@H](CCCCN)NC(=O)[C@@H](NC(=O)[C@@H](NC(=O)[C@@H](N)CCC(N)=O)[C@@H](C)CC)[C@@H](C)O)C(=O)N[C@@H](CCC(N)=O)C(=O)N[C@@H](CC(N)=O)C(=O)N[C@@H](Cc1ccccc1)C(=O)N[C@@H](CCCNC(=N)N)C(=O)N[C@H](C(=O)N[C@@H](Cc1ccc(O)cc1)C(=O)N[C@@H](Cc1ccc(O)cc1)C(=O)N[C@@H](CCCNC(=N)N)C(=O)N[C@@H](CC(=O)O)C(=O)N[C@@H](CO)C(=O)N[C@@H](CCCNC(=N)N)C(=O)N[C@@H](CC(=O)O)C(=O)N1CCC[C@H]1C(=O)N[C@H](C(=O)N[C@@H](Cc1c[nH]c2ccccc12)C(N)=O)[C@@H](C)CC)C(C)C [integrase(216-235)] | 311 nM
DEELLKAVRIIKILYQSNP-NH2 [rev(9-27)] | 7 nM
LNKIVRMYSPVSILDI-NH2 [p24(138-153)] | 357 nM
VVIQDNSDIKVVPRRKAKII-NH2 [integrase(249-268)] | 7420 nM

Same assay, conditions: read-out: Binding capacity/IC50 (nM) DPA1*01:03 DPB1*02:01

Compound | IC50
CSCC[C@H](NC(=O)[C@H](CCCCN)NC(=O)[C@H](C)NC(=O)[C@H](Cc1ccc(O)cc1)NC(=O)[C@H](CCCCN)NC(=O)CNC(=O)[C@@H](NC(=O)[C@H](CCCCN)NC(=O)[C@H](CC(C)C)NC(=O)[C@H](CC(N)=O)NC(=O)[C@H](CCCCN)NC(=O)[C@H](Cc1ccccc1)NC(=O)[C@@H]1CCCN1C(=O)[C@H](CCC(=O)O)NC(=O)[C@@H](N)CCC(N)=O)[C@@H](C)O)C(N)=O [RT(343-357)] | 115 nM
CC[C@H](C)[C@H](NC(=O)[C@H](CCCCN)NC(=O)[C@H](CCC(N)=O)NC(=O)[C@@H](NC(=O)[C@H](C)NC(=O)[C@H](CCC(=O)O)NC(=O)[C@@H](N)[C@@H](C)O)C(C)C)C(=O)N[C@@H](C)C(=O)N[C@H](C(=O)N[C@@H](CCC(=O)O)C(=O)N[C@@H](CO)C(=O)N[C@H](C(=O)N[C@H](C(=O)N[C@H](C(=O)N[C@@H](Cc1c[nH]c2ccccc12)C(=O)NCC(=O)N[C@@H](CCCCN)C(=O)N[C@H](C(=O)N1CCC[C@H]1C(=O)N[C@@H](CCCCN)C(=O)N[C@@H](Cc1ccccc1)C(=O)N[C@@H](CCCNC(=N)N)C(=O)N[C@@H](CC(C)C)C(N)=O)[C@@H](C)O)[C@@H](C)CC)C(C)C)[C@@H](C)CC)[C@@H](C)O [RT(369-391)] | 2210 nM
CC(C)C[C@H](NC(=O)[C@H](CCCCN)NC(=O)[C@@H](NC(=O)[C@H](CC(C)C)NC(=O)[C@@H]1CCCN1C(=O)[C@@H]1CCCN1C(=O)[C@@H](NC(=O)[C@H](CC(N)=O)NC(=O)[C@@H](NC(=O)[C@H](Cc1ccccc1)NC(=O)[C@H](CCC(=O)O)NC(=O)[C@H](Cc1c[nH]c2ccccc12)NC(=O)[C@@H](N)CCC(=O)O)C(C)C)[C@@H](C)O)C(C)C)C(=O)N[C@@H](Cc1c[nH]c2ccccc12)C(=O)N[C@@H](Cc1ccc(O)cc1)C(N)=O [RT(413-427)] | 639 nM
CC[C@H](C)[C@H](NC(=O)[C@@H]1CCCN1C(=O)[C@H](CCC(=O)O)NC(=O)[C@@H](N)CCCCN)C(=O)N[C@H](C(=O)NCC(=O)N[C@@H](C)C(=O)N[C@@H](CCC(=O)O)C(=O)N[C@H](C(=O)N[C@@H](Cc1ccccc1)C(=O)N[C@@H](Cc1ccc(O)cc1)C(=O)N[C@H](C(=O)N[C@@H](CC(=O)O)C(=O)NCC(=O)N[C@@H](C)C(N)=O)C(C)C)[C@@H](C)O)C(C)C [RT(431-445)] | 30 nM
CC[C@H](C)[C@H](NC(=O)CNC(=O)[C@H](CCCCN)NC(=O)[C@H](Cc1c[nH]cn1)NC(=O)[C@H](C)NC(=O)[C@@H]1CCCN1C(=O)[C@@H](NC(=O)[C@H](Cc1c[nH]c2ccccc12)NC(=O)[C@H](CO)NC(=O)[C@H](CC(C)C)NC(=O)[C@H](Cc1ccc(O)cc1)NC(=O)[C@@H](NC(=O)[C@H](CCCCN)NC(=O)[C@H](CCC(=O)O)NC(=O)[C@@H](N)CCCCN)C(C)C)C(C)C)C(=O)NCC(=O)NCC(=O)N[C@@H](CC(N)=O)C(=O)N[C@@H](CCC(=O)O)C(N)=O [RT(528-546)] | 45 nM
CC[C@H](C)[C@H](NC(=O)[C@H](Cc1ccc(O)cc1)NC(=O)CNC(=O)[C@H](CO)NC(=O)[C@H](C)NC(=O)[C@@H](NC(=O)[C@H](Cc1c[nH]cn1)NC(=O)[C@@H](NC(=O)[C@H](C)NC(=O)[C@@H](NC(=O)[C@H](CC(C)C)NC(=O)[C@@H](NC(=O)[C@@H](NC(=O)[C@H](CCCCN)NC(=O)CNC(=O)[C@@H](N)CCC(=O)O)[C@@H](C)CC)[C@@H](C)CC)C(C)C)C(C)C)C(C)C)C(=O)N[C@@H](CCC(=O)O)C(N)=O [integrase(69-85)] | 4.5 nM
CC[C@H](C)[C@H](NC(=O)[C@@H](NC(=O)[C@H](CCCCN)NC(=O)[C@@H](NC(=O)[C@@H]1CCCN1C(=O)[C@H](Cc1c[nH]c2ccccc12)NC(=O)[C@H](CCCNC(=N)N)NC(=O)CNC(=O)[C@H](C)NC(=O)[C@H](CC(C)C)NC(=O)[C@H](CCCCN)NC(=O)[C@H](CC(C)C)NC(=O)[C@@H](NC(=O)[C@H](Cc1ccccc1)NC(=O)[C@H](Cc1ccc(O)cc1)NC(=O)[C@H](C)NC(=O)[C@@H](NC(=O)[C@@H](N)CCC(=O)O)[C@@H](C)O)[C@@H](C)CC)C(C)C)C(C)C)C(N)=O [integrase(96-113)] | 697 nM
CC[C@H](C)[C@H](NC(=O)[C@H](C)NC(=O)[C@H](CCCCN)NC(=O)[C@H](CCCCN)NC(=O)CNC(=O)[C@H](CS)NC(=O)[C@@H](NC(=O)[C@H](CCC(=O)O)NC(=O)[C@@H](NC(=O)[C@H](CC(C)C)NC(=O)[C@@H](NC(=O)[C@H](CCC(N)=O)NC(=O)[C@H](CC(=O)O)NC(=O)[C@H](Cc1ccc(O)cc1)NC(=O)[C@H](CCC(N)=O)NC(=O)[C@H](CCCNC(=N)N)NC(=O)[C@@H](NC(=O)[C@H](CCCCN)NC(=O)[C@@H](NC(=O)[C@@H](N)Cc1ccccc1)[C@@H](C)CC)C(C)C)[C@@H](C)CC)[C@@H](C)CC)[C@@H](C)CC)C(=O)NCC(=O)N[C@H](C(=O)N[C@H](C(N)=O)C(C)C)[C@@H](C)O [protease(53-75)] | 41 nM
CC[C@H](C)[C@H](NC(=O)[C@H](C)NC(=O)[C@@H](N)CCC(=O)O)C(=O)N[C@H](C(=O)N[C@@H](CCCNC(=N)N)C(=O)N[C@H](C(=O)N[C@@H](CC(C)C)C(=O)N[C@@H](CCC(N)=O)C(=O)N[C@@H](CCC(N)=O)C(=O)N[C@@H](CC(C)C)C(=O)N[C@@H](CC(C)C)C(=O)N[C@@H](Cc1ccccc1)C(=O)N[C@H](C(=O)N[C@@H](Cc1c[nH]cn1)C(=O)N[C@@H](Cc1ccccc1)C(=O)N[C@@H](CCCNC(=N)N)C(=O)N[C@H](C(=O)NCC(=O)N[C@@H](CS)C(=O)N[C@@H](CCC(N)=O)C(=O)N[C@@H](Cc1c[nH]cn1)C(=O)N[C@@H](CO)C(=O)N[C@@H](CCCNC(=N)N)C(N)=O)[C@@H](C)CC)[C@@H](C)CC)[C@@H](C)CC)[C@@H](C)CC [vpr(58-80)] | 717 nM
EAVRHFPRPWLHGL-NH2 [vpr(29-42)] | 2140 nM
IRYPLTFGWCFKLVPVDPREVEEA-NH2 [nef(133-156)] | 119 nM
IVALIIAIVVWTIV-NH2 [vpu(13-26)] | 29900 nM
NYPIVQNLQGQMVHQAISPR-NH2 [p17(131-132)/p24(1-18)] | 55 nM
SEELRSLYNTVATLYCVHQ-NH2 [p17(72-90)] | 67 nM
VGSLQYLALTALITPKK-NH2 [vif(142-158)] | 76 nM
YAKMRSAHTNDVKQL-NH2 [RT(354-368)] | 687 nM
